Experimental data reported in US4889634A, “Dialysate solution containing hydroxypropyl-beta-cyclodextrin and method of using same” (priority 1988, dated 1989).

Legend:
Cynomolgus monkeys = details: cynomolgus monkey, in vivo
Method: (§1) As part of the toxicological evaluation of HPBCD, control groups of animals were dosed with HPBCD alone.
Two groups (1/sex/group) of Cynomolgus monkeys were used for this study. Control monkeys were given 200 mg of salt per kilogram of body weight intravenously administered as a saline control solution of 20% by weight in water. The saline control was administered every second day for 14 days (i.e. 7 doses). The treated monkeys were given 200 mg/kg i.v. HPBCD on the same injection schedule. […] At the end of the study the animals were necropsied, gross pathology was observed, histopathology samples were prepared and blood was drawn for clinical laboratory measurements.

normal rats = assay: relative nephrotoxicity of HPBCD and BCD, intraperitoneal; assay type: in vivo, rat; details: for Mortality (died/total): BCD 0.75% w/v, HPBCD 1.5 and 3% w/v, 15 ml/100 g i.p.
Method: A first study was conducted to determine the relative nephrotoxicity of HPBCD and BCD. A control group using phosphate buffer solution was also included in the study.
Three groups of normal rats were utilized in this study. […] Group I rats were given the vehicle solution of phosphate buffer saline (PBS). Group II rats were subdivided into three sub-groups. The first sub-group received a solution having a concentration of 1.5% HPBCD, the second sub-group received a solution having a concentration of 3% HPBCD while the third sub-group received a solution having a concentration of 6% HPBCD. Group III rats were given a solution having a concentration of 0.75% BCD.
Animals from each group were sacrificed at 24 and 72 hours after injection of the peritoneal solution. The animals were sacrificed under general anesthesia and exsanguinated from the abdominal aorta. Plasma was separated and blood urea nitrogen and creatinine was measured and used as an index of renal toxicity of the solutions.

[1] = tested on: rats [Crl:CD(SD) BR strain]; assay: 14-day intravenous toxicity study in rats; assay type: in vivo, rat
Method: as §1
Two groups (5/sex/group) of rats [Crl:CD(SD) BR strain] were used for this study. Control rats were given 200 mg of salt per kilogram of body weight intravenously administered in a saline control solution comprising 20% salt by weight in water. The saline control was administered every second day for 14 days (i.e. seven injections). The treated rats were given 200 mg of HPBCD per kilogram of body weight intravenously administered (200 mg/kg i.v. HPBCD) via a HPBCD solution containing 20% HPBCD by weight in water on the same injection schedule. […] At the end of the study the animals were necropsied, gross pathology was observed, histopathological samples were prepared and blood was drawn for clinical laboratory measurements.

[2] = 1 day, BCD 0.75%, HPBCD 1.5 and 3%
[3] = 3 day, BCD 0.75%, HPBCD 1.5 and 3%
[4] = female rats, 200 mg/kg i.v., 14 days

## hydroxypropyl-beta-cyclodextrin [HPBCD]
Cynomolgus monkeys
  Changes in behavior: No changes in behavior were observed
  Changes in daily food consumption: No weight changes were observed (TABLE XIII) or changes in daily food consumption
  Gross pathological changes and histopathological findings: No gross pathological changes and no histopathological findings were observed
  Hematology and clinical chemistry values: No differences were seen
  Weight changes: No weight changes were observed
Cynomolgus monkeys; 200 mg/kg
  Basophils: 0.00 × 10^3 /mm^3
  Immature neutrophils: 0.00 × 10^3 mm^3
  Normal blood cells: 0.00 /100 white blood cells
Normal rats; 1 day
  Mortality (died/total): 0/6
Normal rats; [2]
  Kidney size: normal
  Kidney weight: normal
Normal rats; 1 day, BCD 0.75%, HPBCD 1.5 and 3%, Table III
  BUN: 14.8 mg/dL
Normal rats; 3 day
  Mortality (died/total): 0/6
Normal rats; [3]
  Kidney size: normal
  Kidney weight: normal
Normal rats; 3 day, HPBCD 1.5 and 3%, Table III
  BUN: 19.8 mg/dL
Normal rats; HPBCD 1.5%, 1d, n = 6
  BUN: 14.8 mg/dL
  Final body weight Wt (f): 210 g
  Initial body weight Wt (i): 213 g
  Left kidney weight (Lt kd): 867 mg
  Left kidney/body weight (Lt kd/wt): 4.11 mg/g
  Mortality: 0%
  Right kidney weight (Rt kd): 860 mg
  Right kidney/body weight (Rt kd/wt): 4.08 mg/g
Normal rats; HPBCD 1.5%, 3d, n = 6
  BUN: 19.8 mg/dL
  Final body weight Wt (f): 280 g
  Initial body weight Wt (i): 296 g
  Left kidney weight (Lt kd): 1027 mg
  Left kidney/body weight (Lt kd/wt): 3.68 mg/g
  Mortality: 0%
  Right kidney weight (Rt kd): 1009 mg
  Right kidney/body weight (Rt kd/wt): 3.61 mg/g
Normal rats; HPBCD 3%, 1d, n = 6
  BUN: 15.7 mg/dL
  Final body weight Wt (f): 301 g
  Initial body weight Wt (i): 322 g
  Left kidney weight (Lt kd): 1034 mg
  Left kidney/body weight (Lt kd/wt): 3.43 mg/g
  Mortality: 0%
  Right kidney weight (Rt kd): 1054 mg
  Right kidney/body weight (Rt kd/wt): 3.49 mg/g
Normal rats; HPBCD 3%, 3d, n = 6
  BUN: 19.9 mg/dL
  Final body weight Wt (f): 267 g
  Initial body weight Wt (i): 275 g
  Left kidney weight (Lt kd): 995 mg
  Left kidney/body weight (Lt kd/wt): 3.72 mg/g
  Mortality: 0%
  Right kidney weight (Rt kd): 1009 mg
  Right kidney/body weight (Rt kd/wt): 3.78 mg/g
Normal rats; HPBCD 6%, 1d, n = 6
  BUN: 14.5 mg/dL
  Final body weight Wt (f): 227 g
  Initial body weight Wt (i): 240 g
  Left kidney weight (Lt kd): 1076 mg
  Left kidney/body weight (Lt kd/wt): 4.73 mg/g
  Mortality: 0%
  Right kidney weight (Rt kd): 1066 mg
  Right kidney/body weight (Rt kd/wt): 4.70 mg/g
Normal rats; HPBCD Groups, 1 and 3 day, in words
  Rats died: None of the rats
[1]; [4]
  Albumin/Globulin (Ratio): 0.9 ± 0.06
  Triglycerides: 35.0 ± 12.00 mg/dL
  White blood cells: 7.4 ± 2.56 × 10^3 /mm^3
[1]; female, 200 mg/kg i.v.
  Number of observations (antemortem): 0/5
[1]; female, 200 mg/kg i.v. every second day, 14 days
  Number of deaths: 0/5
[1]; female, week 1, 200 mg/kg i.v.
  Body weight gain: 16.0 ± 5.00 Grams
  Food intake: 107.9 ± 10.59 Grams
[1]; female, week 2, 200 mg/kg i.v.
  Body weight gain: 18.0 ± 4.21 Grams
  Food intake: 112.1 ± 12.47 Grams
[1]; females
  Adrenals weight to total body weight ratio: 0.0328 Weight Percent of Total Body W
  Kidney weight to total body weight ratio: 0.9937 Weight Percent of Total Body W
[1]; in words
  Body weight gains vs saline control: No difference
  Food intake vs saline control: No difference
